In patent US5188937A, “Layered sandwich assay method for chlamydia and materials therefor” (Becton, Dickinson and Company, priority 1991, dated 1993) one finds Ki data, which are given here for seven compounds.

The structures appear in SMILES notation.

T1 sequence (P12337 19-565): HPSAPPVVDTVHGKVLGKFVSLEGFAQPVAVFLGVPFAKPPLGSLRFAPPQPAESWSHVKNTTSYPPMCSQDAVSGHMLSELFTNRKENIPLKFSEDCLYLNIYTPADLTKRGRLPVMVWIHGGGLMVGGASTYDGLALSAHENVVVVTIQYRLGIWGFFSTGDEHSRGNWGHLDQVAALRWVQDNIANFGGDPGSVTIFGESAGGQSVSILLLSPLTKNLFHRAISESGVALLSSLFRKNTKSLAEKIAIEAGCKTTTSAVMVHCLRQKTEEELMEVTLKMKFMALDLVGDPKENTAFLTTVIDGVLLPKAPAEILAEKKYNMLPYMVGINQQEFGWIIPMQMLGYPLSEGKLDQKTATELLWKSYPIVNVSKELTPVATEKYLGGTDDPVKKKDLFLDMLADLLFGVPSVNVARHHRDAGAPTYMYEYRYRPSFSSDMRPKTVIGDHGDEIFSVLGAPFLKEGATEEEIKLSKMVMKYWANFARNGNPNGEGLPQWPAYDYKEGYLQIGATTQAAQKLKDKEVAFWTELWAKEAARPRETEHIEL

The test addresses T1, Rabbit Liver Esterase (E.C. 3.1.1.1) (Oryctolagus cuniculus, UniProt P12337).
T1 construct: from tissue; host or cells: rabbit liver
Briefly: Inhibition constants, esterase hydrolysis of o-nitrophenyl butyrate followed spectrophotometrically. As to conditions: RLE; 50 mM Tris pH=8.0; enzyme and inhibitor incubated at ambient temperature for 20 minutes. The test is classed as biochemical. As to the method:
Inhibition constants were measured in 50 mM Tris pH=8.0. Enzyme and inhibitor were incubated at ambient temperature for 20 minutes. Substrate for the enzyme was then added and the rate of hydrolysis was followed spectrophotometrically. The substrate for PLE and RLE was o-nitro-phenylbutrate and for AChE was acetyl thiocholine and Ellman's reagent.
`O=C(CCc1ccc(O)cc1)C(F)(F)C(F)(F)F` [1,1,1,2,2-pentafluoro-5-(4-hydroxyphenyl)-3-pentanone]: affinity was put at a Ki of 800 nM.

`O=C(Cc1ccc(O)cc1)C(F)(F)F` [1,1,1-trifluoro-3-(4-hydroxyphenyl)propanone] showed a Ki of 2000 nM.

As for `O=C(CCc1cccc(O)c1)C(F)(F)F` [1,1,1-trifluoro-4-(3-hydroxyphenyl)-2-butanone], the affinity corresponds to a Ki of 100 nM.

For `O=C(CCc1ccc(O)cc1)C(F)(F)F` [1,1,1-trifluoro-4-(4-hydroxyphenyl)-2-butanone], the Ki is 20 nM. Against the preceding compound, the Ki is about 5-fold lower.

Take `O=C(CCCc1cccc(O)c1)C(F)(F)F` [1,1,1-trifluoro-5-(3-hydroxyphenyl)-2-pentanone]: the affinity corresponds to a Ki of 170 nM.

Compound `O=C(CCCc1ccc(O)cc1)C(F)(F)F` [1,1,1-trifluoro-5-(4-hydroxyphenyl)-2-pentanone] showed a Ki of 10 nM.

In turn, `O=C(CCCCc1ccc(O)cc1)C(F)(F)F` [1,1,1-trifluoro-6-(4-hydroxyphenyl)-2-hexanone] yielded a Ki of 20 nM.

Broadly, the Ki is the dissociation constant of the complex between target and ligand, obtained from inhibition or displacement. Read a high Ki as a looser hold on the target.
